Read-outs that look alike come from different tables or passages of the source.
Key:
[1] = Metabolism in blood (in vivo stability); parameters: species or system mouse; conditions: healthy male Swiss albino mice, blood collected 5 min after iv injection (3 nmol), RP-HPLC radioanalysis
Procedure: The animals were kept for 5 min in cages with free access to water. They were sacrificed by cardiac puncture under ether anesthesia, and blood was withdrawn with a syringe and immediately placed in a pre-chilled EDTA-containing polypropylene vial on ice. Blood samples were centrifuged at 2,000 × g at 4 °C for 10 min.

[2] = Biodistribution in healthy mice; type: in vivo; conditions: male, mouse, 10 pmol total peptide, total radioactivity, healthy Swiss albino mice, iv 10 pmol; for tissue uptake at 4 h: 4 h pi
Procedure: In the in vivo receptor blockade animal group, excess Tate (50 nmol) was administered intravenously (iv) together with the radioligand. Animals were sacrificed in groups of four at 4- and 24-h time points post injection (pi). […] Tissue distribution data were calculated as percent injected dose per gram (%ID/g) applying a suitable algorithm.
The in vivo data presented as mean %ID/g ± SD (n ≥ 4) were statistically analyzed with Student’s t test (Prism^TM 2.01, GraphPad Software, San Diego, CA, USA). Analyses were 2-tailed, and a P value < 0.05 was considered statistically significant.

intact radiopeptide detected in blood [1]: 2%
tissue uptake at 4 h ([2]; kidney, read-out: Kidney uptake): 10.9 %ID/g
tissue uptake at 24 h ([2]; kidney, 24 h pi): 6.6 %ID/g
tissue uptake at 4 h ([2]; pancreas, read-out: Pancreas uptake): < 0.5 %ID/g
Structure (SMILES): C[C@H](NC(=O)CN1CCN(CC(=O)O)CCN(CC(=O)O)CCN(CC(=O)O)CC1)C(=O)NCC(=O)N[C@H]1CSSC[C@@H](C(=O)O)NC(=O)[C@H](CO)NC(=O)[C@H]([C@@H](C)O)NC(=O)[C@H](Cc2ccccc2)NC(=O)[C@H]([C@@H](C)O)NC(=O)[C@H](CCCCN)NC(=O)[C@H](Cc2c[nH]c3ccccc23)NC(=O)[C@H](Cc2ccccc2)NC(=O)[C@H](Cc2ccccc2)NC(=O)[C@H](CC(N)=O)NC(=O)[C@H](CCCCN)NC1=O [[^111In]AT1S, metal not drawn]
